In ChEMBL document CHEMBL1201862, “PubChem BioAssay data set” (2004):
Several values for one entry are separate records, joined by “and”; a condition that tells them apart may be missing. Identical values can stand only once.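 Test compounds were applied to cells in 96-well plates for 48 hours at 5 doses. Here, GI50 denotes the concentration required for 50% inhibition of growth.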 Activity calls are given as the source filed them. Rule as the data show it: active = GI50 up to about 1.1 µM and inactive = higher.

Assays:
Test in all cases: growth of human tumour cells (NCI), 48 h
Hs-578T = system: Hs-578T
TK-10 = system: TK-10
PC-3 = system: PC-3
T47D = system: T47D
BT-549 = system: BT-549
KM-20L2 = system: KM-20L2
RXF 631 = system: RXF 631
LXFL 529 = system: LXFL 529

COc1ccc(C2=N/C(=C\c3ccccc3)C(=O)O2)cc1
GI50 (Hs-578T): 40.8 µM (inactive)
GI50 (TK-10): > 100 µM (inactive)
GI50 (PC-3): > 100 µM (inactive)

CCC(C)NC1=NCC(C)S1 (stereo not given)
GI50 (T47D): > 100 µM (inactive)
GI50 (Hs-578T): > 100 µM (inactive)
GI50 (PC-3): > 100 µM (inactive)
GI50 (BT-549): > 100 µM (inactive)

CCCn1cc2c(SC)nc(SC)nc2n1
GI50 (TK-10): > 100 µM (inactive)

CCOc1ccc2nc(-c3ccc(O)cc3)sc2c1
GI50 (TK-10): 73.1 µM (inactive)
GI50 (PC-3): 58.7 µM (inactive)
GI50 (BT-549): 31.1 µM (inactive)

CC(=O)C1(c2ccccc2)CCCN(C)CC1 (stereo not given)
GI50 (T47D): > 100 µM (inactive)
GI50 (Hs-578T): > 100 µM (inactive)
GI50 (TK-10): > 100 µM (inactive)
GI50 (PC-3): > 100 µM (inactive)
GI50 (BT-549): > 100 µM (inactive)

COc1cccc(N2C(=O)CSC2c2c[nH]c3ccccc23)c1 (stereo not given)
GI50 (T47D): > 100 µM (inactive)
GI50 (TK-10): > 100 µM (inactive)
GI50 (PC-3): > 100 µM (inactive)
GI50 (BT-549): > 100 µM (inactive)

CC(=O)c1ccc2c(c1)c1c(C)c3c[n+](C)ccc3c(C)c1n2C
GI50 (KM-20L2): 17.1 µM (inactive)

COc1cccc2c1C(=O)c1c(O)c3c(c(O)c1C2=O)CC(O)(C(C)=O)CC3O (stereo not given)
GI50 (KM-20L2): 6.85 µM (inactive)

Cc1nc(-c2nc([N+](=O)[O-])c([N+](=O)[O-])[nH]2)cs1
GI50 (RXF 631): > 100 µM (inactive)
GI50 (TK-10): > 100 µM (inactive)
GI50 (KM-20L2): > 100 µM (inactive)
GI50 (LXFL 529): > 100 µM (inactive)

CCOC1=NC(C(F)(F)F)(C(F)(F)F)N=C(N2CCOCC2)O1
GI50 (T47D): 27 µM (inactive)
GI50 (Hs-578T): > 100 µM (inactive)
GI50 (TK-10): > 100 µM (inactive)
GI50 (PC-3): > 100 µM (inactive)
GI50 (BT-549): > 100 µM (inactive)

CN(C)C(=O)/C=C/c1c[nH]c(=O)[nH]c1=O
GI50 (KM-20L2): > 500 µM (inactive)

O=C1c2cc3c(cc2[C@@H]2C(O)[C@H]4O[C@H]4C4CCN1C42)OCO3 (stereo not given in full)
GI50 (TK-10): > 37.5 µM (inactive)
GI50 (KM-20L2): > 37.5 µM (inactive)
GI50 (LXFL 529): > 37.5 µM (inactive)

CCCCCCCCCCSCC(CO)NC(=O)/C=C/c1c(C)[nH]c(=O)[nH]c1=O (stereo not given)
GI50 (KM-20L2): 6.46 µM (inactive) and 3.37 µM (inactive)

Cc1ccc(NC(=O)CC/C(CC(=O)C(C)(C)C)=N/NC(=O)c2cc3ccccc3cc2O)cc1C
GI50 (RXF 631): 44.1 µM (inactive)
GI50 (KM-20L2): 34.5 µM (inactive)
GI50 (LXFL 529): 35.2 µM (inactive)

C=C1C(=O)OCC2C(C(=O)O)=CC3C(C)C(C)=CC123 (stereo not given)
GI50 (KM-20L2): 11.9 µM (inactive)

CCCCCCCC/C=C\CCCCCCCC(=O)O [OLEIC ACID]
GI50 (KM-20L2): > 500 µM (inactive)

COP(=O)(OC)/C(=C\C1=CN(C(c2ccccc2)(c2ccccc2)c2ccccc2)CN1)NC=O
GI50 (T47D): 17.6 µM (inactive)
GI50 (Hs-578T): 23.3 µM (inactive)
GI50 (TK-10): 21.2 µM (inactive)
GI50 (PC-3): 6.44 µM (inactive)
